Data on six molecules can be found in patent US9492554B2, “Methods and compositions related to viral inhibition” (Clemson University Research Foundation (CURF), priority 2009, dated 2016).

Data set [1] relates to TAR RNA. The experiment in a line: UV melting of TAR RNA in presence of ligands (Tm, ΔTm). In kind it is binding, HIV-1.
Experimental: The reactions were done in the presence of 10 mM sodium cacodylate, 0.5 mM EDTA, 0.1 mM MgCl2 pH 7.0. The heating rate was 0.3° C./min.
(§1) UV melting studies of TAR were performed in the presence and absence of various ligands (FIG. 13).
Another data set has as its target HIV-1 TAR RNA. Put plainly: HIV-1 TAR RNA competition FRET binding assay (Tat peptide probe). The note with it: 100 nM TAR RNA, 100 nM Tat peptide, 25° C., 60 min. Here is the method: Before used, HIV-1 TAR RNA (5′-GGC AGA UCUGAG CCU GGG AGC UCU CUG CC-3′, Thermo Scientific) in 10 μM batch in sterile water was heated to 95° C. for 4.5 min, and then cooled rapidly in ice bath for 5 min. This snap-cooling causes the RNA to adopt the kinetically favored hairpin rather than thermodynamically favored duplexes.
The relative affinity of each polyamine for HIV-1 TAR RNA was determined using Fluorescence Resonance Energy Transfer (FRET)-based competitive binding assay with a fluorescein-labeled HIV-1 Tat peptide as described in the literature. The fluorescence experiments were performed with a Spectra Max Fluorimeter (Molecular Devices) at 25° C., with excitation and emission wavelengths of 495 and 570 nm, respectively. All samples were prepared in 96 well plates in 1×TK buffer (50 mM Tris, 20 mM KCl, pH=7.4) with 0.1% Trixton-100 (Sigma).
To a solution of 100 nM HIV-1 TAR RNA and 100 nM fluorescein-labeled HIV-1 Tat peptide, appropriate concentrations (0 nM to 100 μM) of the antagonists were added at 25° C.; total volume of the incubation solution was 80 μL. After 60 min, fluorescence changes of the sample solution were determined by the Spectra Max Fluorimeter Detector.

The subject of data set [2] is cells.
Data set [3] has as its system HIVNL4-3 in MT-2 cells. The experiment in a line: Release of reverse transcriptase into the culture supernatant. It is filed as cell-based, HIV. The note with it: for Release of reverse transcriptase into the culture supernatant, Day 2: mean of triplicate infections (SD), microM: DPA119 24, DPA52 25, DPA53 9, DPA54 17, DPA55 4, DPA56 8, DPA121 25, virus control 46,029; for Release of reverse transcriptase into the culture supernatant, Day 4 / Release of reverse transcriptase into the culture supernatant, Day 6: mean of triplicate infections; for Release of reverse transcriptase into the culture supernatant, Day 4: virus control 928,112; for Release of reverse transcriptase into the culture supernatant, Day 6: virus control 1,078,741. An excerpt: The disclosed conjugates also reduce the amount of reverse transcriptase (RT) released into the cell culture supernatant upon in vitro cell culture experiments (Table 14 below). […] It is possible that even though the cells are positive for HIV, they are making much fewer unspliced transcripts, and thus the virion release into the media remains suppressed. […] Anti-HIV activities can be routinely checked by measuring the percentage of cells positive for HIV antigens using immunofluorescence assay (IFA) and for the release of pelletable reverse transcriptase (RT) into the supernatant. For these assays, 500,000 MT-2 cells in 1 ml of media were added to the wells of a 24 well tissue culture plate. Next, 0.5 ml of 4× concentrated compound was added to triplicate wells of the plate. The cells and compounds were incubated for 1 hr at 37 C. Finally, 0.5 ml of HIVNL4-3, produced in H9 cells (a CD4+ lymphoblastoid cell line), 100,000 cpm of RT activity per well, was added to each well. Virus control wells contained no compounds. This inoculum is at a multiplicity of infection less than 1. […] Next, cells were resuspended in the media and 0.5 mls of the total remaining volume was removed for IFA. Cells were combined from their triplicate infections, pelleted, and the enriched cells were air-dried onto glass slides. The dried cells were fixed in acetonemethanol (50:50). After fixing, cells were stained with HIV immunoglobulin, washed in PBS, and counter-stained with FITC-conjugated goat and human IgG. Slides were washed in PBS and the percentage of HIV-positive cells was determined by epifluorescence (Robinson et al. […] The supernatants from each well were precipitated at 4 C overnight in a solution including 30% polyethylene glycol. After precipitation, precipitate was lysed in a solution containing Triton X100, Tris buffer, and DTT. RT activity of each aliquot was determined as incorporation of 3H-dTTP into a poly rA-oligo dT template. After a one hour assay at 37 C, the incorporated dTTP was precipitated onto a ZetaProbe (BioRad) membrane. Slots were excised and placed into liquid scintillation cocktail. After overnight incubation, counts per minute for each sample was determined on a beta counter. Results were calculated as cpm/ml of original culture supernatant (Robinson et al.

The next data set deals with HIV. The experiment in a line: Protection from HIV cytopathic effects. Particulars: for Maximum protection: maximum protection from HIV cytopathic effects, water control 2%; for concentration at which maximum protection achieved, microM: value in parentheses beside maximum protection. It is filed as cell-based. On the technique in general: Damage to the host cells serves as the signal in cytopathic effect assays.

The subject of data set [4] is HIVNL4-3 in MT-2 cells. Put plainly: HIV antigen synthesis in treated cells, immunofluorescence assay (IFA). It is filed as cell-based. Particulars: for percentage of cells positive for HIV antigens, Day 2: MT-2 cells, microM: DPA119 24, DPA52 25, DPA53 9, DPA54 17, DPA55 4, DPA56 8, DPA121 25, virus control 15%; for percentage of cells positive for HIV antigens, Day 4 / percentage of cells positive for HIV antigens, Day 6: same concentrations, virus control 100%. Here is the method:
Anti-HIV activities can be routinely checked by measuring the percentage of cells positive for HIV antigens using immunofluorescence assay (IFA) and for the release of pelletable reverse transcriptase (RT) into the supernatant. For these assays, 500,000 MT-2 cells in 1 ml of media were added to the wells of a 24 well tissue culture plate. Next, 0.5 ml of 4× concentrated compound was added to triplicate wells of the plate. The cells and compounds were incubated for 1 hr at 37 C. Finally, 0.5 ml of HIVNL4-3, produced in H9 cells (a CD4+ lymphoblastoid cell line), 100,000 cpm of RT activity per well, was added to each well. Virus control wells contained no compounds. This inoculum is at a multiplicity of infection less than 1. On days 2, 4, and 6, 0.75 mls of supernatants were removed and placed into individual microfuge tubes for RT assay. Next, cells were resuspended in the media and 0.5 mls of the total remaining volume was removed for IFA. Cells were combined from their triplicate infections, pelleted, and the enriched cells were air-dried onto glass slides. The dried cells were fixed in acetonemethanol (50:50). After fixing, cells were stained with HIV immunoglobulin, washed in PBS, and counter-stained with FITC-conjugated goat and human IgG. Slides were washed in PBS and the percentage of HIV-positive cells was determined by epifluorescence (Robinson et al. J Acquire Immune Defic Syndr 2:33-42, 1989).

The next data set has as its target HIV-1 RRE RNA. The experiment in a line: HIV-1 RRE RNA competition binding assay (fluorescence polarization, Rev peptide probe). Particulars: 100 nM RRE RNA, 10 nM Rev peptide, 25° C., 1 hour; Table 16. The protocol: Before used, HIV-1 RRE RNA (5′-GGUCUGGGCGCAGCGCAAGCUGACGGUACAGGCC-3′, Thermo Scientific) in 10 μM batch in sterile water was heated to 95° C. for 3 min, and then cooled to ambient temperature over 1 hour.
The relative affinity of each compound for HIV-1 RRE RNA was determined using fluorescence polarization-based competitive binding assay with a fluorescein-labeled HIV-1 Rev peptide. The anisotropy experiments were performed with a Spectra Max Fluorimeter (Molecular Devices) at 25° C., with excitation and emission wavelengths of 485 and 525 nm, respectively. All samples were prepared in 96 well plates in binding buffer (30 mM Hepes, 100 mM KCl, 40 mM NaCl, 10 mM NH4OAc, 10 mM Guanidinium Hydrochloride, 2 mM MgCl2, 0.5 mM EDTA, pH 7.4) with 0.01% triton-X100 (Sigma). The binding data reported for each conjugate are the averages of 3˜5 individual measurements.
A solution of 100 nM RRE RNA and 10 nM fluorescein-labeled HIV-1 Rev peptide was incubated at 25° C. After 10 min, appropriate concentrations (0 nM to 500 μM) of the antagonists were added; total volume of the incubation solution was […]. After 1 hour, the amount of the dissociated fluorescent probe was determined by the Spectra Max fluorescence plate reader. The experimental dose-response data for a given antagonist were fit to a sigmoidal dose-response nonlinear regression model on GraphPad Prism 4.0 to afford the IC50 values for each conjugates (Table 16).
(Polarisation of emitted light reports the rotation of a fluorescent probe.)

Data set [5] deals with TAR RNA. Particulars: inhibition of Tat peptide binding to the TAR RNA; cited from earlier work.
Data set [6] concerns the target site 1 thymidylate synthetase RNA. The note with it: CC bubble of site 1 thymidylate synthetase RNA; read-out: binding constant; cited from earlier work.
Data set [7] deals with cells. The experiment in a line: 5% Toxicity concentration (concentration at which 5% or less cell death is seen).
Data set [8] has as its system TAR. The note with it: ligands to TAR, from UV melting studies.
Experimental: The bottom line represents the control which is TAR without any ligands. […] The reactions were done in the presence of 10 mM sodium cacodylate, 0.5 mM EDTA, 0.1 mM MgCl2 pH 7.0. The heating rate was 0.3° C./min.
as §1
Data set [9] has as its target TAR. Particulars: argininamide binding site of TAR; read-out: binding constant; cited from earlier work.
The test system of data set [10] is TAR RNA. Put plainly: ITC titration of TAR RNA with Neomycin. In kind it is binding, HIV-1. Particulars: 20° C. In general terms: ITC needs no label: the signal is the heat of the interaction.
The target in data set [11] is TAR. The note with it: binds TAR; read-out: affinity; cited from earlier work.

Where two headings read alike, the source gives them in different places.

As a reminder, the IC50 is the concentration needed to halve the response being measured. For `CN1CCN(c2ccc3nc(-c4ccc(OCCn5cc(COCc6cn(C[C@H]7OC(OC8C(O)[C@H](N)CC(N)[C@H]8O[C@H]8OC(CN)[C@@H](O)C(O)C8N)C(O)C7O[C@H]7OC(CN)[C@@H](O)C(O)C7N)nn6)nn5)cc4)[nH]c3c2)CC1` (some centres unmarked) [DPA119], the “ΔTm (° C.)” value in the data set on TAR RNA [1] (TAR RNA with ligand vs control, Table 10) turned out to be 4.2 °C. Further, in the data set on TAR RNA [1] (TAR RNA with ligand, control without ligand 69.3), the “Tm (° C.)” value was 73.5 °C. This molecule came in with an IC50 on HIV-1 TAR RNA (Table 17) of 0.464 ± 0.146 µM. Moreover, the “5% Toxicity microM” value in the data set with cells [2] worked out at 94 µM. In addition, in the data set with HIVNL4-3 in MT-2 cells [3], the “Release of reverse transcriptase into the culture supernatant, Day 2” value is 16,576 (3,815) cpm/ml; the “Release of reverse transcriptase into the culture supernatant, Day 4” value is given as 241,955 cpm/ml; the “Release of reverse transcriptase into the culture supernatant, Day 6” value was 399,421 cpm/ml. Moreover, in the data set on HIV (at 24 microM), the “protection from HIV cytopathic effects” value was 16%. Besides, in the data set with HIVNL4-3 in MT-2 cells [4], the “percentage of cells positive for HIV antigens, Day 2” value was 5-7%; the “percentage of cells positive for HIV antigens, Day 4” value is 90%; the “percentage of cells positive for HIV antigens, Day 6” value is 100%.
For the molecule `CN1CCN(c2ccc3nc(-c4ccc(OCCn5cc(CCCCc6cn(C[C@H]7OC(OC8C(O)[C@H](N)CC(N)[C@H]8O[C@H]8OC(CN)[C@@H](O)C(O)C8N)C(O)C7O[C@H]7OC(CN)[C@@H](O)C(O)C7N)nn6)nn5)cc4)[nH]c3c2)CC1` (some centres unmarked) [DPA121], the 50% inhibitory concentration (IC50) at HIV-1 TAR RNA (Table 17) was 0.686 ± 0.11 µM. Besides, in the data set on cells [2], the “5% Toxicity microM” value was above 186 µM. Besides, in the data set with HIVNL4-3 in MT-2 cells [3], the “Release of reverse transcriptase into the culture supernatant, Day 2” value is reported as 26,499 (5,566) cpm/ml; the “Release of reverse transcriptase into the culture supernatant, Day 4” value is 579,856 cpm/ml; the “Release of reverse transcriptase into the culture supernatant, Day 6” value is 880,573 cpm/ml. In the data set on HIVNL4-3 in MT-2 cells [4], the “percentage of cells positive for HIV antigens, Day 2” value is listed as 15%; the “percentage of cells positive for HIV antigens, Day 4” value was 100%; the “percentage of cells positive for HIV antigens, Day 6” value is 100%. At HIV-1 RRE RNA, this molecule returned an IC50 of 30.5 ± 11.1 µM.
Regarding `[H]/N=C(/N)N[C@H]1[C@H](O)[C@@H](O)[C@H](O[C@@H]2O[C@@H](C)[C@](O)(C=O)[C@H]2O[C@@H]2O[C@@H](CO)[C@H](O)[C@@H](O)[C@@H]2NC)[C@@H](N/C(N)=N\[H])[C@@H]1O` [DPA 506, streptomycin, reference compound], the IC50 is 17.4 ± 4.3 µM at HIV-1 TAR RNA (Table 18), 9.5 ± 0.8 µM in the data set on TAR RNA [5] and above 500 µM on HIV-1 RRE RNA.
For the molecule `CN1CCN(c2ccc3[nH]c(-c4ccc5[nH]c(-c6ccc(O)cc6)nc5c4)nc3c2)CC1` [Hoechst 33258], in [6], the Kd was below 0.1 µM. Further, the IC50 on HIV-1 TAR RNA (Table 17) is 6.6 ± 1.5 µM. Further, in the data set on cells [7], the “5% Toxicity microM” value was 18 µM. In addition, in the data set on HIV, the Maximum protection turned out to be 2% and the “concentration at which maximum protection achieved, microM” value is listed as “(2) microM”. Besides, the “Binding Constant” value with TAR [8] is 420000 M⁻¹.
For the molecule `N=C(N)NCCC[C@H](N)C(N)=O` [argininamide], the Kd on TAR [9] is around 0.001 µM.
As a reminder, the ΔTm is the shift of the melting midpoint relative to a reference. For the molecule neomycin, the ΔTm with TAR RNA [1] (Melting point stabilization of HIV-TAR RNA by Neo Neo dimers, Table 11) turned out to be 0.2 °C. Further, the values for the IC50 at HIV-1 TAR RNA (Table 17) and in the data set on TAR RNA [5] were 0.713 ± 0.165 µM and 0.92 ± 0.09 µM, respectively. In addition, the K result in the data set on TAR RNA [10] is given as “(6.61 ± 0.84) × 10^5”. The same molecule registered a Maximum protection in the data set on HIV of 9%. Also, the “concentration at which maximum protection achieved, microM” value in the data set with HIV is “(206) microM”. The “Binding Constant” value in the data set on TAR [8] is 170000 M⁻¹. Moreover, on TAR [11], the Kd was around 6 µM.
